Data on one compound can be found in US8987266B2, “EGFR mutations” (Genentech, Inc., priority 2004, dated 2015).

One assay relates to HN5 xenografts. Conditions: nude mice; cited from earlier work.
For assay [1] the following is noted: combined with paclitaxel, cisplatin, gemcitabine, and doxorubicin; cited from earlier work.
For a further assay, the system named is A431 xenografts. The conditions noted are these: nude mice; cited from earlier work.
The next assay has as its system H1975 tumor cell line. Put plainly: treatment of H1975 tumor cell line. In kind it is cell-based. Conditions: H1975, EGFR T790M in combination with L858R.

In the case of `C#Cc1cccc(Nc2ncnc3cc(OCCOC)c(OCCOC)cc23)c1` [erlotinib], the “growth inhibition of HN5 xenografts” value in the assay with HN5 xenografts was “marked growth inhibition”. In addition, the “interaction with chemotherapy agents” value in assay [1] is “additive interaction”. For the same compound, the “growth inhibition of A431 xenografts” value in the assay with A431 xenografts was “marked growth inhibition”. The “response of tumor cell line to treatment” value in the assay with H1975 tumor cell line is reported as “exhibited resistance”.
